The structures appear in SMILES notation.

The subject of one assay is ABC-1. Nature of the assay: relative viability (nuclei count vs DMSO), 5 days (fraction); higher = more cells survive. The following applies: first compound 2 µM. The method, boiled down:
(§1)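 Relative viability equals treated-well nuclei counts divided by vehicle-well nuclei counts. Counts came from 4× images of lung cancer cell lines grown in 1536-well plates for 5 days after pin-tool dosing on the day after seeding. Dosing used one drug alone or a fixed anchor-drug dose plus five library-drug doses (not always all listed) in √10 steps, and values are medians of duplicate plates.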
In turn, `COCC1(CO)C(=O)C2CCN1CC2` (configuration not stated) [PRIMA-1MET] + N=C(N)NC(=N)NCCc1ccccc1 [Phenformin] (partner 250 µM) had a relative viability of 0.23.
The same measure, in the same setting: under `COCC1(CO)C(=O)C2CCN1CC2` (configuration not stated) [PRIMA-1MET] + CC(=O)c1c(C)c2cnc(Nc3ccc(N4CCNCC4)cn3)nc2n(C2CCCC2)c1=O [Palbociclib] (partner 0.5 µM) stands 0.482.
Still for that read-out and setting: under `COCC1(CO)C(=O)C2CCN1CC2` (configuration not stated) [PRIMA-1MET] + Cc1nc(Nc2ncc(C(=O)Nc3c(C)cccc3Cl)s2)cc(N2CCN(CCO)CC2)n1 [Dasatinib] (partner 0.075 µM) stands 0.58.
On the same count and under the same terms, under `COCC1(CO)C(=O)C2CCN1CC2` (configuration not stated) [PRIMA-1MET] + O=C(c1cc(Cc2n[nH]c(=O)c3ccccc23)ccc1F)N1CCN(C(=O)C2CC2)CC1 [Olaparib] (partner 8 µM) stands 0.664.

The same assay, now with this note: first compound 6.325 µM.
As for `COCC1(CO)C(=O)C2CCN1CC2` (configuration not stated) [PRIMA-1MET] + N=C(N)NC(=N)NCCc1ccccc1 [Phenformin] (partner 250 µM), the relative viability was found to be 0.231.
As for `COCC1(CO)C(=O)C2CCN1CC2` (configuration not stated) [PRIMA-1MET] + CC(=O)c1c(C)c2cnc(Nc3ccc(N4CCNCC4)cn3)nc2n(C2CCCC2)c1=O [Palbociclib] (partner 0.5 µM), the relative viability turned out to be 0.552.
On the same count and under the same terms, under `COCC1(CO)C(=O)C2CCN1CC2` (configuration not stated) [PRIMA-1MET] + Cc1nc(Nc2ncc(C(=O)Nc3c(C)cccc3Cl)s2)cc(N2CCN(CCO)CC2)n1 [Dasatinib] (partner 0.075 µM) stands 0.451.
On the same count and under the same terms, under `COCC1(CO)C(=O)C2CCN1CC2` (configuration not stated) [PRIMA-1MET] + O=C(c1cc(Cc2n[nH]c(=O)c3ccccc23)ccc1F)N1CCN(C(=O)C2CC2)CC1 [Olaparib] (partner 8 µM) stands 0.662.

The same assay, now with this note: first compound 20 µM.
`COCC1(CO)C(=O)C2CCN1CC2` (configuration not stated) [PRIMA-1MET] + N=C(N)NC(=N)NCCc1ccccc1 [Phenformin] (partner 250 µM) had a relative viability of 0.199.
Same read-out and setting: under `COCC1(CO)C(=O)C2CCN1CC2` (configuration not stated) [PRIMA-1MET] + CC(=O)c1c(C)c2cnc(Nc3ccc(N4CCNCC4)cn3)nc2n(C2CCCC2)c1=O [Palbociclib] (partner 0.5 µM) stands 0.181; under `COCC1(CO)C(=O)C2CCN1CC2` (configuration not stated) [PRIMA-1MET] + Cc1nc(Nc2ncc(C(=O)Nc3c(C)cccc3Cl)s2)cc(N2CCN(CCO)CC2)n1 [Dasatinib] (partner 0.075 µM), 0.279.
Still for that read-out and setting: under `COCC1(CO)C(=O)C2CCN1CC2` (configuration not stated) [PRIMA-1MET] + O=C(c1cc(Cc2n[nH]c(=O)c3ccccc23)ccc1F)N1CCN(C(=O)C2CC2)CC1 [Olaparib] (partner 8 µM) stands 0.616.

In a further assay the test system is CAL-12T. Described as above. The following applies: first compound 0.2 µM. Summed up:
as §1
Turning to `COCC1(CO)C(=O)C2CCN1CC2` (configuration not stated) [PRIMA-1MET] + N=C(N)NC(=N)NCCc1ccccc1 [Phenformin] (partner 250 µM), the relative viability is 0.52.
The same measure, in the same setting: under `COCC1(CO)C(=O)C2CCN1CC2` (configuration not stated) [PRIMA-1MET] + CC(=O)c1c(C)c2cnc(Nc3ccc(N4CCNCC4)cn3)nc2n(C2CCCC2)c1=O [Palbociclib] (partner 0.5 µM) stands 0.339; under `COCC1(CO)C(=O)C2CCN1CC2` (configuration not stated) [PRIMA-1MET] + Cc1nc(Nc2ncc(C(=O)Nc3c(C)cccc3Cl)s2)cc(N2CCN(CCO)CC2)n1 [Dasatinib] (partner 0.075 µM), 0.34.
`COCC1(CO)C(=O)C2CCN1CC2` (configuration not stated) [PRIMA-1MET] + O=C(c1cc(Cc2n[nH]c(=O)c3ccccc23)ccc1F)N1CCN(C(=O)C2CC2)CC1 [Olaparib] (partner 8 µM) displayed a relative viability of 0.806.

Still in this assay, the particulars now being: first compound 0.6325 µM.
In turn, `COCC1(CO)C(=O)C2CCN1CC2` (configuration not stated) [PRIMA-1MET] + N=C(N)NC(=N)NCCc1ccccc1 [Phenformin] (partner 250 µM) showed a relative viability of 0.592.
The same measure, in the same setting: under `COCC1(CO)C(=O)C2CCN1CC2` (configuration not stated) [PRIMA-1MET] + CC(=O)c1c(C)c2cnc(Nc3ccc(N4CCNCC4)cn3)nc2n(C2CCCC2)c1=O [Palbociclib] (partner 0.5 µM) stands 0.373; under `COCC1(CO)C(=O)C2CCN1CC2` (configuration not stated) [PRIMA-1MET] + Cc1nc(Nc2ncc(C(=O)Nc3c(C)cccc3Cl)s2)cc(N2CCN(CCO)CC2)n1 [Dasatinib] (partner 0.075 µM), 0.341.
Same read-out and setting: under `COCC1(CO)C(=O)C2CCN1CC2` (configuration not stated) [PRIMA-1MET] + O=C(c1cc(Cc2n[nH]c(=O)c3ccccc23)ccc1F)N1CCN(C(=O)C2CC2)CC1 [Olaparib] (partner 8 µM) stands 0.747.

Still in this assay, the particulars now being: first compound 2 µM.
`COCC1(CO)C(=O)C2CCN1CC2` (configuration not stated) [PRIMA-1MET] + N=C(N)NC(=N)NCCc1ccccc1 [Phenformin] (partner 250 µM) returned a relative viability of 0.586.
Still for that read-out and setting: under `COCC1(CO)C(=O)C2CCN1CC2` (configuration not stated) [PRIMA-1MET] + CC(=O)c1c(C)c2cnc(Nc3ccc(N4CCNCC4)cn3)nc2n(C2CCCC2)c1=O [Palbociclib] (partner 0.5 µM) stands 0.446; under `COCC1(CO)C(=O)C2CCN1CC2` (configuration not stated) [PRIMA-1MET] + Cc1nc(Nc2ncc(C(=O)Nc3c(C)cccc3Cl)s2)cc(N2CCN(CCO)CC2)n1 [Dasatinib] (partner 0.075 µM), 0.456; under `COCC1(CO)C(=O)C2CCN1CC2` (configuration not stated) [PRIMA-1MET] + O=C(c1cc(Cc2n[nH]c(=O)c3ccccc23)ccc1F)N1CCN(C(=O)C2CC2)CC1 [Olaparib] (partner 8 µM), 0.639.

The same assay, now with this note: first compound 6.325 µM.
Regarding `COCC1(CO)C(=O)C2CCN1CC2` (configuration not stated) [PRIMA-1MET] + N=C(N)NC(=N)NCCc1ccccc1 [Phenformin] (partner 250 µM), the relative viability was 0.519.
Still for that read-out and setting: under `COCC1(CO)C(=O)C2CCN1CC2` (configuration not stated) [PRIMA-1MET] + CC(=O)c1c(C)c2cnc(Nc3ccc(N4CCNCC4)cn3)nc2n(C2CCCC2)c1=O [Palbociclib] (partner 0.5 µM) stands 0.439; under `COCC1(CO)C(=O)C2CCN1CC2` (configuration not stated) [PRIMA-1MET] + Cc1nc(Nc2ncc(C(=O)Nc3c(C)cccc3Cl)s2)cc(N2CCN(CCO)CC2)n1 [Dasatinib] (partner 0.075 µM), 0.364.
